# Tests used:
# Cytochrome b [1] = target: Cytochrome b (Homo sapiens, UniProt P00156); assay: Cytochrome b Enzyme Assay; conditions: pH 7.4; 25 °C
# Method: (§1) Reaction plates were incubated at room temperature for 10 min before reading absorbance at 550 nm. Absolute IC50 values were calculated in GraphPad Prism 6.0.
# Cytochrome b [2] = target: T1, Cytochrome b (Candida albicans, UniProt I2BJW5); assay: Cytochrome b Enzyme Assay; conditions: pH 7.4; 25 °C
# T1 sequence (I2BJW5 whole entry): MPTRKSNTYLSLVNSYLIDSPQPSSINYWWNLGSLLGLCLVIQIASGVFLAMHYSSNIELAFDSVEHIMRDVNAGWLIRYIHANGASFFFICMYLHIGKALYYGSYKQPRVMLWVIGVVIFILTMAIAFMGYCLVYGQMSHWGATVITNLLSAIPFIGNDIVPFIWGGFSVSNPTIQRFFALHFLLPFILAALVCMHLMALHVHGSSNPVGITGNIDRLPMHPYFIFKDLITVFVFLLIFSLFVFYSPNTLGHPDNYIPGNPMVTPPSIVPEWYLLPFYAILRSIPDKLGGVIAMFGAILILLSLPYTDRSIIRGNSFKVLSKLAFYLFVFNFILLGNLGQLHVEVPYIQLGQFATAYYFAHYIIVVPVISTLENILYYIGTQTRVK
# Method: as §1
# Cytochrome b (Homo sapiens, UniProt P00156), sequence (P00156 whole entry): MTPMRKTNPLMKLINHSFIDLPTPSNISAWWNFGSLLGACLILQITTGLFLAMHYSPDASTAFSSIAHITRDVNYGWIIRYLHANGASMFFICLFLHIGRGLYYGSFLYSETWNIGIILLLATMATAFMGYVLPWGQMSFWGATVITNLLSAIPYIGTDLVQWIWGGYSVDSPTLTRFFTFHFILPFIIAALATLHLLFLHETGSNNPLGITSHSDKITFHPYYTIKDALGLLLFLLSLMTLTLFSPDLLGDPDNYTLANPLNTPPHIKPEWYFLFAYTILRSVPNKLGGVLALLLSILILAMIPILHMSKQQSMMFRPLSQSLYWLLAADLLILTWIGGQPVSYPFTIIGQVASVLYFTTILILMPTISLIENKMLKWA
IC50 (Cytochrome b [1]),IC50 (Cytochrome b [2]),SMILES
> 64 µM,35.2 µM,COC(=O)Cn1nc(-c2cccc(OCCN(C)C)c2)c2ccccc21 [Inz-63]
3.23 µM,0.3 µM,COC(=O)Cn1nc(-c2cccc(OCCC3CCCCC3)c2)c2ccccc21 [Inz-64]
> 64 µM,1.08 µM,COC(=O)Cn1nc(-c2cccc(OCc3ccccc3)c2C)c2ccccc21 [Inz-66]
> 64 µM,3.27 µM,COC(=O)Cn1nc(-c2cccc(OCc3ccccc3)c2F)c2ccccc21 [Inz-69]
> 64 µM,17.9 µM,c1ccc(-c2nn(Cc3nnco3)c3ccccc23)cc1 [Inz-72]
> 64 µM,15.1 µM,COC(=O)Cn1nc(-c2cccs2)c2ccccc21 [Inz-73]
1.08 µM,1.14 µM,COC(=O)Cn1nc(-c2cccc(OCCC34CC5CC(CC(C5)C3)C4)c2)c2ccccc21 [Inz-75]
> 64 µM,14.8 µM,c1ccc(-c2nn(Cc3ncon3)c3ccccc23)cc1 [Inz-78]
0.79 µM,0.0388 µM,COC(=O)Cn1nc(-c2cc(OCCCC3CCCCC3)ccc2F)c2cccc(C)c21 [Inz-80]
12.3 µM,0.614 µM,Cn1nnc(Cn2nc(-c3cc(OCCCC4CCCCC4)ccc3F)c3ccccc32)n1 [Inz-82]
> 64 µM,> 64 µM,c1ccc(-c2nn(Cc3ccccn3)c3ccccc23)cc1 [Inz-85]
> 64 µM,> 64 µM,CN(O)C(=O)Cn1nc(-c2ccccc2)c2ccccc21 [Inz-87]
> 64 µM,> 64 µM,N#Cc1ncccc1Cn1nc(-c2ccccc2)c2ccccc21 [Inz-91]
> 64 µM,> 64 µM,COC(=O)Cn1nc(-c2ccncc2)c2ccccc21 [Inz-92]
> 64 µM,> 64 µM,c1ccc(-c2nn(Cc3cncnc3)c3ccccc23)cc1 [Inz-93]
35.1 µM,0.449 µM,Fc1ccc(C(F)(F)F)cc1-c1nn(Cc2cnccn2)c2ccccc12 [Inz-94]
> 64 µM,20.4 µM,Fc1ccc(C(F)(F)F)cc1-c1nn(Cc2cnccn2)c2ccncc12 [Inz-98]
> 64 µM,17.7 µM,Fc1ccc(C(F)(F)F)cc1-c1nn(Cc2cnccn2)c2cccnc12 [Inz-99]
> 64 µM,> 64 µM,CC(=O)Nc1ccc2c(-c3cc(C(F)(F)F)ccc3F)nn(Cc3cnccn3)c2c1 [Inz-101]
> 64 µM,17.6 µM,COC(=O)Cc1nn(-c2ccccc2)c2ccccc12 [Inz-104]

# More lines, now with the values behind:
SMILES,IC50 (Cytochrome b [1]),IC50 (Cytochrome b [2])
COC(=O)Cn1nc(-c2cccc(F)c2F)c2ccccc21 [Inz-60],> 64 µM,1.43 µM
COC(=O)Cn1nc(-c2cc(F)ccc2F)c2ccccc21 [Inz-61],> 64 µM,0.891 µM
COC(=O)Cn1nc(-c2cc(F)ccc2C)c2ccccc21 [Inz-62],> 64 µM,4.7 µM
CCN(CC)CCOc1cccc(-c2nn(CC(=O)OC)c3ccccc23)c1 [Inz-65],> 64 µM,13.8 µM
COC(=O)Cn1nc(-c2cccc(OCCN(C(C)C)C(C)C)c2)c2ccccc21 [Inz-67],19.3 µM,2.4 µM
COC(=O)Cn1nc(-c2cc(OCc3ccccc3)ccc2F)c2ccccc21 [Inz-68],1.66 µM,0.0352 µM
COC(=O)Cn1nc(-c2cccc(F)c2)c2ccccc21 [Inz-70],> 64 µM,5.91 µM
COC(=O)Cn1nc(-c2ccc(F)cc2F)c2ccccc21 [Inz-71],> 64 µM,16.6 µM
COC(=O)Cn1nc(-c2cccc(OCCC(C)(C)C)c2)c2ccccc21 [Inz-74],4.72 µM,0.657 µM
COC(=O)Cn1nc(-c2cccc(OCCCC3CCCCC3)c2)c2ccccc21 [Inz-76],5.46 µM,1.8 µM
Cc1nc(Cn2nc(-c3ccccc3)c3ccccc32)no1 [Inz-77],> 64 µM,> 64 µM
c1ccc(-c2nn(Cc3c[nH]nn3)c3ccccc23)cc1 [Inz-79],> 64 µM,> 64 µM
COC(=O)Cn1nc(-c2cc(OCCCC3CCCCC3)ccc2F)c2ccccc21 [Inz-81],2.43 µM,0.129 µM
Cn1nnc(Cn2nc(-c3cc(C(F)(F)F)ccc3F)c3ccccc32)n1 [Inz-83],> 64 µM,1.22 µM
Cc1cccc2c(-c3cc(OCCCC4CCCCC4)ccc3F)nn(Cc3nnn(C)n3)c12 [Inz-84],2.92 µM,0.154 µM
COC(=O)CNc1ccccc1Oc1ccccc1 [Inz-86],> 64 µM,> 64 µM
O=C(Cn1nc(-c2ccccc2)c2ccccc21)NO [Inz-88],> 64 µM,> 64 µM
FC(F)Cn1nc(-c2ccccc2)c2ccccc21 [Inz-89],> 64 µM,> 64 µM
Brc1cccnc1Cn1nc(-c2ccccc2)c2ccccc21 [Inz-90],> 64 µM,> 64 µM
COc1cccc2c(-c3cc(C(F)(F)F)ccc3F)nn(Cc3cnccn3)c12 [Inz-95],15.2 µM,0.437 µM
N#Cc1cccc2c(-c3cc(C(F)(F)F)ccc3F)nn(Cc3cnccn3)c12 [Inz-96],> 64 µM,22.7 µM
Fc1ccc(C(F)(F)F)cc1-c1nn(Cc2cnccn2)c2ncccc12 [Inz-97],54.4 µM,0.935 µM
Nc1ccc2c(-c3cc(C(F)(F)F)ccc3F)nn(Cc3cnccn3)c2c1 [Inz-100],> 64 µM,5.48 µM
CS(=O)(=O)N(c1ccc2c(-c3cc(C(F)(F)F)ccc3F)nn(Cc3cnccn3)c2c1)S(C)(=O)=O [Inz-102],> 64 µM,> 64 µM
CNc1ccc2c(-c3cc(C(F)(F)F)ccc3F)nn(Cc3cnccn3)c2c1 [Inz-103],> 64 µM,2.13 µM
"CCCCCCC1C(=O)O[C@H](C)[C@H](NC(=O)c2cccc(NC=O)c2O)C(=O)O[C@@H](C)[C@@H]1OC(=O)CC(C)C (stereo partly drawn) [[(2R,3S,6S,7R)-3-[(3-formamido-2-hydroxybenzoyl)amino]-8-hexyl-2,6-dimethyl-4,9-dioxo-1,5-dioxonan-7-yl] 3-methylbutanoate]",0.007 µM,0.005 µM

# From BindingDB's records for doi:10.1016/j.chembiol.2016.06.016 (Massachusetts Institute of Technology, 2016)
